We go through 1 molecule from article PMC7957705 (Molecules, 2021).

Where a SMILES comes first, the peptide text is derived from it. Bridges are numbered along the chain shown (N, C = ends). Triazole bridges read from a SMILES are 1,4-linked. [ ]: non-standard residue; d: D form. The star is where a group is joined. Benzoyl(4-guanidino) = N=C(N)Nc1ccc(C(=O)*)cc1; Aha = [N-]=[N+]=NCC[C@H](N)C(=O)O; β3hV = CC(C)[C@H](N)CC(=O)O; Nle = CCCC[C@H](N)C(=O)O; Pra = C#CC[C@H](N)C(=O)O

One data set addresses T1, human MCH-R1 (Homo sapiens, UniProt Q99705).
T1 construct: expressed in transfected cells
In words: Binding displacement of [125I]-[Phe13,Tyr19]-MCH at membranes expressing human MCH-R1. The method, then:
Stable cell lines were obligatory for all receptor programs. We cloned the human receptor and established the cell line as previously described. In brief, HEK293 (HEK) cells were grown in Dulbecco’s Modified Eagle medium (DMEM) supplemented with 10% fetal calf serum, 2 mM glutamine, 100 IU/mL penicillin and […] streptomycin. They were seeded at 5 × 10^6 cells in T75 cm^2 culture flasks. One day later, they were transfected with […] of the pcDNA3.1 (Invitrogen, Groningen, The Netherlands) containing the human MCH-R1 using lipofectamine (Life Technologies, Cergy Pontoise, France), as previously described. One day later, cells were trypsinized, resuspended in a complete DMEM medium containing […] of geneticin and seeded at different dilutions in 96-well plates which were kept for 2 to 3 weeks in a humidified CO2 incubator. At the end of the selection period, isolated clones were picked up, amplified, and further characterized by cyclic AMP experiments. For each cell line, one positive clone was subcloned before being used for all of the cyclic AMP, [^35S]-GTPγS and receptor binding experiments necessary to characterize them. The stable HEK293 cell line expressing the human MCH-R1 was HEK-hMCH-R1.
Membrane preparations were classically made as previously described. In brief, the HEK-hMCH-R cell line was grown to confluency, harvested in PBS buffer containing 2 mM EDTA and centrifuged at 10,000× g for 5 min (4°C). The resulting pellet was suspended in 20 mM Hepes buffer (pH 7.5), containing 5 mM EGTA and homogenized using a Kinematica polytron. The homogenate was then centrifuged (95,000× g, 30 min, 4 °C) and the resulting pellet was suspended in 50 mM HEPES buffer (pH 7.5), containing 10 mM MgCl2 and 2 mM EGTA. Aliquots of membrane preparations were stored at −80 °C until use. Binding has been described in numerous publications and the test was based on Mac Donald et al.’s description. […] Nonspecific binding is determined in the presence of 0.1 μM MCH. […] The filters are dried and then counted for radioactivity in a scintillation counter (Topcount, Packard) using a scintillation cocktail (Microscint 0, Packard). The results are expressed as percentage inhibition of the control radioligand specific binding. The standard reference compound is MCH, which was tested in each experiment at 8 concentrations to obtain a competition curve from which its IC50 is calculated. The high level of assay robustness and reproducibility of each control monitored over several decades (internal data base, Eurofins) and included in every assay ensure results’ reliability even when performed only twice. […]
Background: Loss of bound radioactivity is the signal in a displacement assay; it reports binding, not function.

The subject of data set [1] is high-fat diet-induced obese C57BL/6 mice. Put plainly: Diet-induced obesity model: food and water intake. In kind it is in vivo, mouse. The settings on record: 5 and 10 mg/kg i.p. once daily, HFD mice. As to the method:
(§1) Male C57BL/6 mice at 4 weeks of age were provided by BioLasco Taiwan (under Charles River Laboratories Licensee). All animals were maintained in an environment with well-controlled temperature (20–24 °C) and humidity (30–70%) with 12 h light/dark cycles. Free access to standard lab diet (MFG (Oriental Yeast Co., Ltd., Japan)) and autoclaved tap water was granted. […]
(§2) The protocol was performed for all groups and all animals. […] Body weight was recorded three times weekly from Week 9. Food/water intake was recorded twice weekly from Week 9. […] At the termination in Week 20 (Day 141), the adipose tissue weight, including epididymal, mesenteric, inguinal, retroperitoneal, and brown fat, was measured after the animals were sacrificed. […] The following parameters were measured: (1) body weight three times weekly; (2) food/water intake twice weekly; (3) blood chemistry in Weeks 8 (before dosing), 16 and 20 including glucose, insulin, serum lipids (triglycerides (TG), total cholesterol (TC), AST, alanine aminotransferase (ALT), uric acid, creatinine, potassium and sodium through 16-h fasting animals; and finally, (4) total body fat (including visceral and subcutaneous fat) in Week 20.

The test system is the same in data set [2]. The following applies: mouse, in vivo. The method, then:
as §1, §2

The next data set relates to fa/fa rats. In words: Genetic model of obesity (fa/fa rats). In kind it is in vivo, rat. The settings on record: data not shown.

T1 sequence (Q99705 whole entry): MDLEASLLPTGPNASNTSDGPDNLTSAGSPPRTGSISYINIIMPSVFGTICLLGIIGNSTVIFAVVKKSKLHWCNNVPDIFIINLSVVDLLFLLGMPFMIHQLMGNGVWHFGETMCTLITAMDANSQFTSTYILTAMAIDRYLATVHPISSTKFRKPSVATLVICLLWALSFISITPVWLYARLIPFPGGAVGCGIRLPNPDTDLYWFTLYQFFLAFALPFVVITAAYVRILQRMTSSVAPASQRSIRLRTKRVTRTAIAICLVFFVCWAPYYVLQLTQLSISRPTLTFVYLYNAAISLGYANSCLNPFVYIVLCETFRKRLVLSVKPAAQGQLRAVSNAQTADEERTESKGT

As for `CCCC[C@@H]1NC(=O)[C@@H](NC(=O)c2ccc(NC(=N)N)cc2)CCn2cc(nn2)C[C@@H](C(=O)N[C@@H](Cc2c[nH]c3ccccc23)C(=O)O)NC(=O)[C@@H]2CCCN2C(=O)[C@H](CCCNC(=N)N)NC(=O)C[C@H](C(C)C)NC(=O)[C@H](CCCNC(=N)N)NC(=O)[C@H](CC(C)C)NC1=O` [GPS18169] ({Benzoyl(4-guanidino)}-[Aha][Nle]LR[β3hV]RP[Pra]W-OH; triazole 1-8), on human MCH-R1, the “affinity at the MCH-R1 receptor (in words)” value is recorded as “low nanomolar range”. Besides, in data set [1], the “food intake, treated vs vehicle” value is listed as “no change” and the “water intake, treated vs vehicle” value is given as “no change”. The “overt toxicities and behavioral modifications” value in data set [2] is recorded as “Neither overt toxicities nor behavioral modifications were observed”. Further, the “changes between treated and untreated animals” value in the data set with fa/fa rats is “no changes were recorded”.
